The values that follow come from paper PMC10516623 (2023).

The subject of assay [1] is Wild-typed SAM/SAH riboswitch (Cy3-U20, 3' DNA extension, annealed to anchor DNA) (DNA:RNA, riboswitch, nucleotides 1-52 of strand 1 RNA, 53-70 DNA; strand 2 DNA) GAUACCUGUCACAACGGCUUCCUGGCGUGACGAGGUGACCUCAGUGGAGCAAACCGCTGCCGTCGCTCCG/CGGAGCGACGGCAGCGGT
The assay is described as follows: smFRET titration, two-state isotherm (pre-folded). The conditions noted are these: 100 mM KCl, 2 mM MgCl2, 40 mM HEPES pH 7.5, immobilised RNA, text b38 gives 10 μM.

In assay [2] the test system is P1x_C26Z (DNA:RNA, riboswitch, zebularine at 26 (replaces C) of strand 1; nucleotides 1-52 RNA, 53-70 DNA; strand 2 DNA) GAUACCUGUCACAACGGCUUCCUGGCGUGACGAGGUGACCUCAGUGGAGCAAACCGCTGCCGTCGCTCCG/CGGAGCGACGGCAGCGGT
As to the kind of experiment: smFRET titration, two-state isotherm (pre-folded). The conditions noted are these: 100 mM KCl, 2 mM MgCl2, 40 mM HEPES pH 7.5, immobilised RNA, text b44 gives 41 μM.

In assay [3] the test system is P1x_A14P (DNA:RNA, riboswitch, purine (adenine lacking N6) at 14 (replaces A) of strand 1; nucleotides 1-52 RNA, 53-70 DNA; strand 2 DNA) GAUACCUGUCACAACGGCUUCCUGGCGUGACGAGGUGACCUCAGUGGAGCAAACCGCTGCCGTCGCTCCG/CGGAGCGACGGCAGCGGT
The assay is described as follows: smFRET titration, two-state isotherm (pre-folded). The conditions noted are these: 100 mM KCl, 2 mM MgCl2, 40 mM HEPES pH 7.5, immobilised RNA.

Assay [4] has as its system T_G16P (DNA:RNA, riboswitch, purine (adenine lacking N6) at 16 (replaces G, written as G) of strand 1; nucleotides 1-52 RNA, 53-70 DNA; strand 2 DNA) GAUACCUGUCACAACGGCUUCCUGGCGUGACGAGGUGACCUCAGUGGAGCAAACCGCTGCCGTCGCTCCG/CGGAGCGACGGCAGCGGT
As to the kind of experiment: smFRET titration, two-state isotherm (pre-folded). Particulars: 100 mM KCl, 2 mM MgCl2, 40 mM HEPES pH 7.5, immobilised RNA.

In assay [5] the test system is PK_C18A/G49U/C50U (DNA:RNA, riboswitch, nucleotides 1-52 of strand 1 RNA, 53-70 DNA; strand 2 DNA) GAUACCUGUCACAACGGAUUCCUGGCGUGACGAGGUGACCUCAGUGGAUUAAACCGCTGCCGTCGCTCCG/CGGAGCGACGGCAGCGGT
As to the kind of experiment: smFRET titration, two-state isotherm (pre-folded). The conditions noted are these: 100 mM KCl, 2 mM MgCl2, 40 mM HEPES pH 7.5, immobilised RNA.

Assay [6] concerns P1x_A14C/C26U (DNA:RNA, riboswitch, nucleotides 1-52 of strand 1 RNA, 53-70 DNA; strand 2 DNA) GAUACCUGUCACACCGGCUUCCUGGUGUGACGAGGUGACCUCAGUGGAGCAAACCGCTGCCGTCGCTCCG/CGGAGCGACGGCAGCGGT
The assay is described as follows: smFRET titration, two-state isotherm (pre-folded). Particulars: 100 mM KCl, 2 mM MgCl2, 40 mM HEPES pH 7.5, immobilised RNA.

Assay [7] relates to Wild-typed SAM/SAH riboswitch (Cy3-U20, 3' DNA extension, annealed to anchor DNA) (DNA:RNA, riboswitch, nucleotides 1-52 of strand 1 RNA, 53-70 DNA; strand 2 DNA) GAUACCUGUCACAACGGCUUCCUGGCGUGACGAGGUGACCUCAGUGGAGCAAACCGCTGCCGTCGCTCCG/CGGAGCGACGGCAGCGGT
The assay is described as follows: smFRET vectorial folding (Rep-X unwinding), two-state isotherm. The conditions noted are these: 100 mM KCl, 2 mM MgCl2, 40 mM HEPES pH 7.5, 2 mM ATP, RNA released from cDNA heteroduplex, non-equilibrium.

As usually defined, the Kd is the concentration at which binding is half-saturated. Low values mean tighter binding, high ones weaker binding. Usually apparent Kd stands for the concentration giving half-maximal binding under the conditions of the assay. Turning to `C[S+](CC[C@H](N)C(=O)O)C[C@H]1O[C@@H](n2cnc3c(N)ncnc32)[C@H](O)[C@@H]1O` (stereo partly shown), the Kd in assay [1] is 11 µM; in assay [2], 42 µM; in assay [3] it was 61 µM; in assay [4], 607 µM; in assay [5], more than 1000 µM; in assay [6], 593 µM. The “apparent Kd” value in assay [7] came out at 108 µM.
